Measurements reported in article PMC6431625 (Frontiers in Endocrinology, 2019).

Assays:
FP = system: FP; set-up: method as in PMID 10454504; details: cited from earlier work
AT1R-Venus = biological target: T1, AT1R-Venus (Homo sapiens, UniProt P30556); assay type: cell-based; details: ligand 1 μM
T1 construct: SP (signal peptide) (N); expressed in transfected cells; host or cells: HEK 293
T1 sequence (P30556 1-359): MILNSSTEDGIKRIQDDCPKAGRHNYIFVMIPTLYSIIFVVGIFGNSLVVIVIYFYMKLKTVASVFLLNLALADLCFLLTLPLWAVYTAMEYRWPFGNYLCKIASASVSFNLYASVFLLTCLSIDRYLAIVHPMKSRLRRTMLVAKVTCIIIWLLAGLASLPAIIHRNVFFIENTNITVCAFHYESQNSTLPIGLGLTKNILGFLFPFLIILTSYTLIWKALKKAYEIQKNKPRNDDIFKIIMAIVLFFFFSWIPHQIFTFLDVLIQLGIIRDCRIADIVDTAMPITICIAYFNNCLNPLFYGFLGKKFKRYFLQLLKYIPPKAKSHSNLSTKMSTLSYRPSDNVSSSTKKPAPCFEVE

FP-Venus = biological target: T2, FP-Venus (Homo sapiens, UniProt P43088); assay type: cell-based; details: ligand 1 μM
T2 construct: SP (signal peptide) (N); expressed in transfected cells; host or cells: HEK 293
T2 sequence (P43088 whole entry): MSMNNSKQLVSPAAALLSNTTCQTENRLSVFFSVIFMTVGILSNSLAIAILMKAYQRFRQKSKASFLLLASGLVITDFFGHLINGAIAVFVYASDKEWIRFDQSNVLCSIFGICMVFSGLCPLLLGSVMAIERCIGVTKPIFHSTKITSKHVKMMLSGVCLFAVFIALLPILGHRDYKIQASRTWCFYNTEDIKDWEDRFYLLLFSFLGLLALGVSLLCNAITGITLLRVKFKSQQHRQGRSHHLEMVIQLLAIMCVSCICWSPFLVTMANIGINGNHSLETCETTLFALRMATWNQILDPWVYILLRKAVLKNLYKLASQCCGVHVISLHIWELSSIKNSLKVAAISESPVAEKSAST

AT1R-WT/FP-Venus dimer = biological target: T3, AT1R-WT/FP-Venus dimer (Homo sapiens, UniProt P30556+P43088); assay type: cell-based; details: ligand 1 μM
T3 construct: SP (signal peptide) (N); expressed in transfected cells; host or cells: HEK 293
T3 sequence (P43088 whole entry, one chain of several): as the sequence (P43088 whole entry) above

AT1R[Δ325]-Venus = biological target: T4, AT1R[Δ325]-Venus (Homo sapiens, UniProt P30556+P43088); assay type: cell-based; details: ligand 1 μM
T4 construct: SP (signal peptide) (N); expressed in transfected cells; host or cells: HEK 293
T4 sequence (P43088 whole entry, stated change not applied, one chain of several): as the sequence (P43088 whole entry) above

OTR-Venus = assay type: cell-based, human; details: ligand 1 μM
AT1R-RlucII = biological target: T5, AT1R-RlucII (Homo sapiens, UniProt P30556+P43088); assay: Enhanced bystander BRET trafficking of AT1R-RlucII co-expressed with wildtype FP (Lyn-rGFP, rGFP-FYVE); assay type: cell-based; details: ligand 1 μM; co-expressed WT FP; HEK293
T5 construct: SP (signal peptide) (N); expressed in transfected cells; host or cells: HEK293
T5 sequence (P43088 whole entry, one chain of several): as the sequence (P43088 whole entry) above

FP-RlucII = biological target: T6, FP-RlucII (Homo sapiens, UniProt P43088); assay: Enhanced bystander BRET trafficking of FP-RlucII co-expressed with wildtype AT1R (Lyn-rGFP, rGFP-FYVE); assay type: cell-based; details: co-expressed WT-AT1R; HEK293; PGF2α 1 μM; Ang II data not shown
T6 construct: SP (signal peptide) (N); expressed in transfected cells; host or cells: HEK293
T6 sequence (P43088 whole entry, one chain of several): as the sequence (P43088 whole entry) above

[1] = biological target: T7, SP-FLAG-hAT1R-KPVAT-Venus (human, UniProt P30556 1-359); assay: FRET or BRET; living HEK 293 cells, 37°C, Kreb's buffer pH 7.4, coelenterazine h; β-arrestin-RlucII donor, receptor-Venus acceptor expressed alone (no partner receptor); ligand-induced ΔBRET after Ang II (1 μM), followed 90 min; details: partners not purified
T7 construct: human angiotensin II type 1 receptor, wild type; amplified from pcDNA3/SP-FLAG-hAT1R-WT; A signal peptide (SP); BRET acceptor; also called AT1R-Venus; angiotensin II type 1 receptor; not shown: Venus (after the linker KPVAT), C-terminal, kept
T7 sequence (looked up): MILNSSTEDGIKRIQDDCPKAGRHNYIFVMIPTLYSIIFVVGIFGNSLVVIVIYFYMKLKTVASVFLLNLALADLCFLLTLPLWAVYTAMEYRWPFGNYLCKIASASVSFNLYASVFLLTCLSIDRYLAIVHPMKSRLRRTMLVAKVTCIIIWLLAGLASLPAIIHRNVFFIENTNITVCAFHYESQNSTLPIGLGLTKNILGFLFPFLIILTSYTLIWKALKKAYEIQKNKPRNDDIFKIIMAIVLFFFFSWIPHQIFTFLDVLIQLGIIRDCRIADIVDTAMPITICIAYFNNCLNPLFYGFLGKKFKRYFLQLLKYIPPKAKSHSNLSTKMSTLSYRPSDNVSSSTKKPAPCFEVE

[2] = biological target: T7, SP-FLAG-hAT1R-KPVAT-Venus; assay: FRET or BRET; living HEK 293 parental cells, 37°C, Kreb's buffer pH 7.4; β-arrestin-RlucII donor, receptor-Venus acceptor co-expressed with the untagged partner receptor (AT1R-Venus, AT1R[Δ325]-Venus or OTR-Venus with FP-WT; FP-Venus with AT1R-WT); ΔBRET after PGF2α (1 μM); also other FP ligands, AT1R antagonists and endocytosis inhibitors; details: partners not purified

O=C(O)CCC/C=C\C[C@@H]1[C@@H](/C=C/[C@H](O)C2Cc3ccccc3C2)[C@@H](F)C[C@@H]1O [AL-8810]
Agonist properties at FP (FP): partial agonist properties

CCCCC[C@H](O)/C=C/[C@@H]1[C@@H](C/C=C\CCCC(=O)O)[C@@H](O)C[C@H]1O [PGF2α, prostaglandin F2α]
Ligand-induced recruitment of β-arrestin 1/2-RlucII to AT1R-Venus alone (AT1R-Venus): no responses were detected | Ligand-induced recruitment of β-arrestin 1/2-RlucII to FP-Venus alone (FP-Venus): did not induce recruitment | Ligand-induced recruitment of β-arrestin 1/2-RlucII to the AT1R-WT/FP-Venus dimer (AT1R-WT/FP-Venus dimer): did not induce recruitment | Ligand-induced recruitment of β-arrestin 1/2-RlucII to AT1R[Δ325]-Venus in the context of the dimer (AT1R[Δ325]-Venus): No responses were detected | Ligand-induced recruitment of β-arrestin 1/2-RlucII to OTR-Venus in the context of the dimer (OTR-Venus): No responses were detected | Trafficking of AT1R-RlucII (membrane Lyn-rGFP and endosome rGFP-FYVE bystander BRET) (AT1R-RlucII): time-dependent loss of the membrane signal and an increase in the endosomal population | Trafficking of FP-RlucII (membrane Lyn-rGFP and endosome rGFP-FYVE bystander BRET) (FP-RlucII): loss of membrane-localized receptor and a transient increase in an early endosomal population

B1: β-arrestin 1-RlucII (natural protein, UniProt P49407 1-418, looked up)
chain: MGDKGTRVFKKASPNGKLTVYLGKRDFVDHIDLVDPVDGVVLVDPEYLKERRVYVTLTCAFRYGREDLDVLGLTFRKDLFVANVQSFPPAPEDKKPLTRLQERLIKKLGEHAYPFTFEIPPNLPCSVTLQPGPEDTGKACGVDYEVKAFCAENLEEKIHKRNSVRLVIRKVQYAPERPGPQPTAETTRQFLMSDKPLHLEASLDKEIYYHGEPISVNVHVTNNTNKTVKKIKISVRQYADICLFNTAQYKCPVAMEEADDTVAPSSTFCKVYTLTPFLANNREKRGLALDGKLKHEDTNLASSTLLREGANREILGIIVSYKVKVKLVVSRGGLLGDLASSDVAVELPFTLMHPKPKEEPPHREVPENETPVDTNLIELDTNDDDIVFEDFARQRLKGMKDDKEEEEDGTGSPQLNNR
notes: β-arrestin 1; BRET donor; also called βarr1-RlucII
t1/2 of ligand-induced recruitment (BRET) [1]: < 2 min | t1/2 of ligand-induced recruitment (BRET) [2]: 20 min
